Laboratory results reported in patent US6525001B1, “Substituted pyrimidine and pyridine herbicides” (Mid-American Commercialization Corporation, priority 1997, dated 2003).

Legend:
Assay in all cases: Test B pre-/postemergence
Assay type in all cases: in vivo
Parameters in all cases: key: 0 is no effect; 10 is complete control
[1] = system: bedstraw (Galium aparine)
Method in brief: (§1)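 Response scores run from 0, meaning no effect, to 10, meaning complete control, assigned by eye relative to controls twelve to sixteen days after spraying. Treatment was both preemergence on planted seed and postemergence on plants at the 1- to 4-leaf stage.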

[2] = system: blackgrass (Alopecurus myosuroides)
Method in brief: as §1

[3] = system: broadleaf signalgrass (Brachiaria decumbens)
Method in brief: as §1

[4] = system: cocklebur (Xanthium strumarium)
Method in brief: as §1

corn (Zea mays) = system: corn (Zea mays)
Method in brief: as §1

[5] = system: crabgrass (Digitaria sanguinalis); settings: for Plant response rating, Crabgrass: Preemergence
Method in brief: as §1

[6] = system: momingglory (Ipomoea hederacea)
Method in brief: as §1

[7] = system: pigweed (Amaranthus retroflexus)
Method in brief: as §1

rape (Brassica napus) = system: rape (Brassica napus)
Method in brief: as §1

soybean (Glycine max) = system: soybean (Glycine max)
Method in brief: as §1

[8] = system: sugar beet (Beta vulgaris)
Method in brief: as §1

[9] = system: velvetleaf (Abutilon theophrasti)
Method in brief: as §1

[10] = system: wheat (Triticum aestivum)
Method in brief: as §1

wild oat (Avena fatua) = system: wild oat (Avena fatua)
Method in brief: as §1

[11] = Preemergence, Rate 62 g/ha, scale of 0 to 10

SMILES: Cc1cnc(-c2ccc(C(F)(F)F)cc2)nc1C(=O)c1cccc(OC(F)(F)F)c1 [Compound 75]
- Plant response rating, Bedstraw [1, 11]: 3
- Bedstraw plant response rating ([1]; Rate 62 g/ha, Postemergence): 5
- Bedstraw plant response rating ([1]; Rate 125 g/ha, Postemergence): 9
- Plant response rating, Bedstraw ([1]; Rate 125 g/ha, Preemergence): 6
- Plant response rating, Bedstraw ([1]; Rate 250 g/ha, Postemergence): 9
- Plant response rating, Bedstraw ([1]; Rate 250 g/ha, Preemergence): 6
- Plant response rating, Bedstraw ([1]; Rate 500 g/ha, Preemergence): 8
- Plant response rating, Blackgrass [2, 11]: 3
- Blackgrass plant response rating ([2]; Rate 62 g/ha, Postemergence): 3
- Blackgrass plant response rating ([2]; Rate 125 g/ha, Postemergence): 6
- Plant response rating, Blackgrass ([2]; Rate 125 g/ha, Preemergence): 8
- Plant response rating, Blackgrass ([2]; Rate 250 g/ha, Postemergence): 8
- Plant response rating, Blackgrass ([2]; Rate 250 g/ha, Preemergence): 9
- Plant response rating, Blackgrass ([2]; Rate 500 g/ha, Preemergence): 10
- B. signalgrass plant response rating ([3]; Rate 62 g/ha, Postemergence): 2
- B. signalgrass plant response rating ([3]; Rate 62 g/ha, Preemergence): 8
- B. signalgrass plant response rating ([3]; Rate 125 g/ha, Postemergence): 2
- Plant response rating, B. signalgrass ([3]; Rate 125 g/ha, Preemergence): 9
- Plant response rating, B. signalgrass ([3]; Rate 250 g/ha, Postemergence): 3
- Plant response rating, B. signalgrass ([3]; Rate 250 g/ha, Preemergence): 9
- Plant response rating, B. signalgrass ([3]; Rate 500 g/ha, Preemergence): 9
- Plant response rating, Cocklebur [4, 11]: 0
- Cocklebur plant response rating ([4]; Rate 62 g/ha, Postemergence): 7
- Cocklebur plant response rating ([4]; Rate 125 g/ha, Postemergence): 7
- Plant response rating, Cocklebur ([4]; Rate 125 g/ha, Preemergence): 0
- Plant response rating, Cocklebur ([4]; Rate 250 g/ha, Postemergence): 7
- Plant response rating, Cocklebur ([4]; Rate 250 g/ha, Preemergence): 2
- Plant response rating, Cocklebur ([4]; Rate 500 g/ha, Preemergence): 9
- Plant response rating, Corn (corn (Zea mays); [11]): 0
- Corn plant response rating (corn (Zea mays); Rate 62 g/ha, Postemergence): 2
- Corn plant response rating (corn (Zea mays); Rate 125 g/ha, Postemergence): 3
- Plant response rating, Corn (corn (Zea mays); Rate 125 g/ha, Preemergence): 0
- Plant response rating, Corn (corn (Zea mays); Rate 250 g/ha, Postemergence): 3
- Plant response rating, Corn (corn (Zea mays); Rate 250 g/ha, Preemergence): 1
- Plant response rating, Corn (corn (Zea mays); Rate 500 g/ha, Preemergence): 2
- Plant response rating, Crabgrass ([5]; Rate 62 g/ha, scale of 0 to 10): 6
- Crabgrass plant response rating ([5]; Rate 125 g/ha, Postemergence): 4
- Plant response rating, Crabgrass ([5]; Rate 125 g/ha): 9
- Plant response rating, Crabgrass ([5]; Rate 250 g/ha): 9
- Plant response rating, Crabgrass ([5]; Rate 500 g/ha): 10
- Plant response rating, Morningglory [6, 11]: 6
- Morningglory plant response rating ([6]; Rate 62 g/ha, Postemergence): 10
- Morningglory plant response rating ([6]; Rate 125 g/ha, Postemergence): 10
- Plant response rating, Morningglory ([6]; Rate 125 g/ha, Preemergence): 10
- Plant response rating, Morningglory ([6]; Rate 250 g/ha, Postemergence): 10
- Plant response rating, Morningglory ([6]; Rate 250 g/ha, Preemergence): 10
- Plant response rating, Morningglory ([6]; Rate 500 g/ha, Preemergence): 10
- Plant response rating, Redroot pigweed [7, 11]: 9
- Redroot pigweed plant response rating ([7]; Rate 62 g/ha, Postemergence): 9
- Redroot pigweed plant response rating ([7]; Rate 125 g/ha, Postemergence): 9
- Plant response rating, Redroot pigweed ([7]; Rate 125 g/ha, Preemergence): 10
- Plant response rating, Redroot pigweed ([7]; Rate 250 g/ha, Postemergence): 10
- Plant response rating, Redroot pigweed ([7]; Rate 250 g/ha, Preemergence): 10
- Plant response rating, Redroot pigweed ([7]; Rate 500 g/ha, Preemergence): 10
- Plant response rating, Rape (rape (Brassica napus); [11]): 2
- Rape plant response rating (rape (Brassica napus); Rate 62 g/ha, Postemergence): 5
- Rape plant response rating (rape (Brassica napus); Rate 125 g/ha, Postemergence): 7
- Plant response rating, Rape (rape (Brassica napus); Rate 125 g/ha, Preemergence): 3
- Plant response rating, Rape (rape (Brassica napus); Rate 250 g/ha, Postemergence): 9
- Plant response rating, Rape (rape (Brassica napus); Rate 250 g/ha, Preemergence): 4
- Plant response rating, Rape (rape (Brassica napus); Rate 500 g/ha, Preemergence): 4
- Plant response rating, Soybean (soybean (Glycine max); [11]): 0
- Soybean plant response rating (soybean (Glycine max); Rate 62 g/ha, Postemergence): 3
- Soybean plant response rating (soybean (Glycine max); Rate 125 g/ha, Postemergence): 3
- Plant response rating, Soybean (soybean (Glycine max); Rate 125 g/ha, Preemergence): 0
- Plant response rating, Soybean (soybean (Glycine max); Rate 250 g/ha, Postemergence): 3
- Plant response rating, Soybean (soybean (Glycine max); Rate 250 g/ha, Preemergence): 0
- Plant response rating, Soybean (soybean (Glycine max); Rate 500 g/ha, Preemergence): 1
- Plant response rating, Sugarbeets [8, 11]: 9
- Sugarbeets plant response rating ([8]; Rate 62 g/ha, Postemergence): 10
- Sugarbeets plant response rating ([8]; Rate 125 g/ha, Postemergence): 10
- Plant response rating, Sugarbeets ([8]; Rate 125 g/ha, Preemergence): 10
- Plant response rating, Sugarbeets ([8]; Rate 250 g/ha, Postemergence): 10
- Plant response rating, Sugarbeets ([8]; Rate 250 g/ha, Preemergence): 10
- Plant response rating, Sugarbeets ([8]; Rate 500 g/ha, Preemergence): 10
- Plant response rating, Velvetleaf [9, 11]: 2
- Velvetleaf plant response rating ([9]; Rate 62 g/ha, Postemergence): 8
- Velvetleaf plant response rating ([9]; Rate 125 g/ha, Postemergence): 9
- Plant response rating, Velvetleaf ([9]; Rate 125 g/ha, Preemergence): 8
- Plant response rating, Velvetleaf ([9]; Rate 250 g/ha, Postemergence): 9
- Plant response rating, Velvetleaf ([9]; Rate 250 g/ha, Preemergence): 9
- Plant response rating, Velvetleaf ([9]; Rate 500 g/ha, Preemergence): 10
- Plant response rating, Wheat [10, 11]: 0
- Wheat plant response rating ([10]; Rate 62 g/ha, Postemergence): 2
- Wheat plant response rating ([10]; Rate 125 g/ha, Postemergence): 2
- Plant response rating, Wheat ([10]; Rate 125 g/ha, Preemergence): 4
- Plant response rating, Wheat ([10]; Rate 250 g/ha, Postemergence): 3
- Plant response rating, Wheat ([10]; Rate 250 g/ha, Preemergence): 4
- Plant response rating, Wheat ([10]; Rate 500 g/ha, Preemergence): 5
- Plant response rating, Wild oats (wild oat (Avena fatua); [11]): 5
- Wild oats plant response rating (wild oat (Avena fatua); Rate 62 g/ha, Postemergence): 3
- Wild oats plant response rating (wild oat (Avena fatua); Rate 125 g/ha, Postemergence): 3
- Plant response rating, Wild oats (wild oat (Avena fatua); Rate 125 g/ha, Preemergence): 7
- Plant response rating, Wild oats (wild oat (Avena fatua); Rate 250 g/ha, Postemergence): 3
- Plant response rating, Wild oats (wild oat (Avena fatua); Rate 250 g/ha, Preemergence): 7
- Plant response rating, Wild oats (wild oat (Avena fatua); Rate 500 g/ha, Preemergence): 9
